Patent US11179397B2, “Imidazopyrimidine derivatives” (Gilead Sciences, Inc., priority 2018, dated 2021)

Experiments:
NCI-H358 cells = test: NCI-H358 3D tumor spheroid growth inhibition; assay type: cell-based; settings: Homo sapiens, NCI-H358, 168 h, 3D spheroids, 7 days, 3D CellTiter Glo; cellular IC50 designated EC50; read-out: H358 EC50
Method in brief: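 Cells seeded at 1000/well in ultra-low-attachment plates at 37 °C, 5% CO2 to form spheroids, then incubated a further 7 days with compounds. Viability by 3D CellTiter Glo luminescence; % inhibition versus DMSO wells, with normalized cellular IC50 reported as EC50.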

[1] = target: SHP-2 full length protein (Homo sapiens (Human), UniProt Q06124); test: SHP-2 biochemical DiFMUP pseudosubstrate-fluorogenic assay; settings: 0.2 nM SHP-2, 1 μM IRS-1 activator peptide, 50 μM DiFMUP; read-out: SHP2 IC50
Method in brief: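 In-house recombinant full-length SHP-2 preincubated 90 min at room temperature with compounds (1:3 series, 10,000–0.005 nM), then DiFMUP substrate added at 50 μM final for 30 min more. Fluorescence normalised to DMSO wells (100%) and IC50 derived by curve fitting.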

Sequence of SHP-2 full length protein (Q06124 whole entry): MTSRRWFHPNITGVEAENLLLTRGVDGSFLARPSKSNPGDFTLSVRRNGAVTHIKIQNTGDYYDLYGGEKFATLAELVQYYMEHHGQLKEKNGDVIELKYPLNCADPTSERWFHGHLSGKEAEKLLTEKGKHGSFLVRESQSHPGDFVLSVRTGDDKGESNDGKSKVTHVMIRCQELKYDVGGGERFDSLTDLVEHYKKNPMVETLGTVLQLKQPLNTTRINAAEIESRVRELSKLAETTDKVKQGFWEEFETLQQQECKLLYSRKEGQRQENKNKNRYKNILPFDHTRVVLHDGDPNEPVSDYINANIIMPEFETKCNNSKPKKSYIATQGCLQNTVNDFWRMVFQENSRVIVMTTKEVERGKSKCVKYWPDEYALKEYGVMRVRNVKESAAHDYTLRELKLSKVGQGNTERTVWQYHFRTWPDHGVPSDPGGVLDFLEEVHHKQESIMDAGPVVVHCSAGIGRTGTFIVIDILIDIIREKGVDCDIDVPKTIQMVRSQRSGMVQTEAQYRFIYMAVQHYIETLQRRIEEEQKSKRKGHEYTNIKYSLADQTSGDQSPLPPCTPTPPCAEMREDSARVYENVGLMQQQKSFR

Structure (SMILES): Cc1nccc(Sc2cnc(N3CCC4(CCC[C@H]4N)CC3)n3ccnc23)c1C [Example 80, (R)-8-(8-((2,3-dimethylpyridin-4-yl)thio)imidazo[1,2-c]pyrimidin-5-yl)-8-azaspiro[4.5]decan-1-amine]
- EC50 (NCI-H358 cells): 270 nM
- IC50 [1]: 28 nM

Structure (SMILES): Cc1c(Sc2cnc(N3CCC4(CCC[C@H]4N)CC3)n3ccnc23)ccnc1Cl [Example 81, (R)-8-(8-((2-chloro-3-methylpyridin-4-yl)thio)imidazo[1,2-c]pyrimidin-5-yl)-8-azaspiro[4.5]decan-1-amine]
- EC50 (NCI-H358 cells): 82 nM
- IC50 [1]: 7.2 nM

Structure (SMILES): N[C@@H]1CCCC12CCN(c1ncc(Sc3ccnc4c3CCCC4)c3nccn13)CC2 [Example 82, (R)-8-(8-((5,6,7,8-tetrahydroquinolin-4-yl)thio)imidazo[1,2-c]pyrimidin-5-yl)-8-azaspiro[4.5]decan-1-amine]
- EC50 (NCI-H358 cells): 125 nM
- IC50 [1]: 11 nM

Structure (SMILES): N[C@@H]1CCCC12CCN(c1ncc(Sc3cccn4cnnc34)c3nccn13)CC2 [Example 83, (R)-8-(8-([1,2,4]triazolo[4,3-a]pyridin-8-ylthio)imidazo[1,2-c]pyrimidin-5-yl)-8-azaspiro[4.5]decan-1-amine]
- EC50 (NCI-H358 cells): > 12500 nM
- IC50 [1]: 150 nM

Structure (SMILES): N[C@@H]1c2ccccc2CC12CCN(c1ncc(Sc3cccc(Cl)c3Cl)c3nccn13)CC2 [Example 85, (S)-1′-(8-((2,3-dichlorophenyl)thio)imidazo[1,2-c]pyrimidin-5-yl)-1,3-dihydrospiro[indene-2,4′-piperidin]-1-amine]
- EC50 (NCI-H358 cells): 11 nM
- IC50 [1]: 2.1 nM

Structure (SMILES): N[C@H]1c2ccccc2CC12CCN(c1ncc(Sc3cccc(Cl)c3Cl)c3nccn13)CC2 [Example 86, (R)-1′-(8-((2,3-dichlorophenyl)thio)imidazo[1,2-c]pyrimidin-5-yl)-1,3-dihydrospiro[indene-2,4′-piperidin]-1-amine]
- EC50 (NCI-H358 cells): 350 nM
- IC50 [1]: 250 nM

Structure (SMILES): N#Cc1cccc2c(Sc3cnc(N4CCC5(CCC[C@H]5N)CC4)n4ccnc34)ccnc12 [Example 88, (R)-4-((5-(1-amino-8-azaspiro[4.5]decan-8-yl)imidazo[1,2-c]pyrimidin-8-yl)thio)quinoline-8-carbonitrile]
- EC50 (NCI-H358 cells): 160 nM
- IC50 [1]: 18 nM

Structure (SMILES): N[C@@H]1CCCC12CCN(c1ncc(Sc3cc(=O)[nH]c4ccccc34)c3nccn13)CC2 [Example 89, (R)-4-((5-(1-amino-8-azaspiro[4.5]decan-8-yl)imidazo[1,2-c]pyrimidin-8-yl)thio)quinolin-2(1H)-one]
- EC50 (NCI-H358 cells): > 12500 nM
- IC50 [1]: > 10000 nM

Structure (SMILES): N[C@@H]1CCCC12CCN(c1ncc(Sc3ccnc4ncccc34)c3nccn13)CC2 [Example 90, (R)-8-(8-((1,8-naphthyridin-4-yl)thio)imidazo[1,2-c]pyrimidin-5-yl)-8-azaspiro[4.5]decan-1-amine]
- EC50 (NCI-H358 cells): 410 nM
- IC50 [1]: 37 nM

Structure (SMILES): C[C@H](N)C1CCN(c2ncc(Sc3cccc(Cl)c3Cl)c3nccn23)CC1 [Example 91, (S)-1-(1-(8-((2,3-dichlorophenyl)thio)imidazo[1,2-c]pyrimidin-5-yl)piperidin-4-yl)ethan-1-amine]
- EC50 (NCI-H358 cells): 2000 nM
- IC50 [1]: 170 nM

Structure (SMILES): C[C@@H]1OCC2(CCN(c3ncc(Sc4cc(=O)n(C)c5ccccc45)c4nccn34)CC2)[C@@H]1N [Example 92, 4-((5-((3S,4S)-4-amino-3-methyl-2-oxa-8-azaspiro[4.5]decan-8-yl)imidazo[1,2-c]pyrimidin-8-yl)thio)-1-methylquinolin-2(1H)-one]
- EC50 (NCI-H358 cells): > 12500 nM
- IC50 [1]: > 10000 nM

Structure (SMILES): C[C@@H]1OCC2(CCN(c3ncc(Sc4cncc5ccccc45)c4nccn34)CC2)[C@@H]1N [Example 93, (3S,4S)-3-methyl-8-(8-(isoquinolin-4-ylthio)imidazo[1,2-c]pyrimidin-5-yl)-2-oxa-8-azaspiro[4.5]decan-4-amine]
- EC50 (NCI-H358 cells): > 12500 nM
- IC50 [1]: 480 nM

Structure (SMILES): C[C@@H](N)C1CCN(c2ncc(Sc3cccc(Cl)c3Cl)c3nccn23)CC1 [Example 94, (R)-1-(1-(8-((2,3-dichlorophenyl)thio)imidazo[1,2-c]pyrimidin-5-yl)piperidin-4-yl)ethan-1-amine]
- EC50 (NCI-H358 cells): 1000 nM
- IC50 [1]: 170 nM

Structure (SMILES): C[C@@H]1OCC2(CCN(c3ncc(Sc4cccc5ncsc45)c4nccn34)CC2)[C@@H]1N [Example 95, (3S,4S)-8-(8-(benzo[d]thiazol-7-ylthio)imidazo[1,2-c]pyrimidin-5-yl)-3-methyl-2-oxa-8-azaspiro[4.5]decan-4-amine]
- EC50 (NCI-H358 cells): 95 nM
- IC50 [1]: 5.2 nM

Structure (SMILES): C[C@@H]1OCC2(CCN(c3ncc(Sc4cccc5c(C=O)csc45)c4nccn34)CC2)[C@@H]1N [Example 96, 7-((5-((3S,4S)-4-amino-3-methyl-2-oxa-8-azaspiro[4.5]decan-8-yl)imidazo[1,2-c]pyrimidin-8-yl)thio)benzo[b]thiophene-3-carbaldehyde]
- EC50 (NCI-H358 cells): 97 nM
- IC50 [1]: 4.1 nM

Structure (SMILES): C[C@@H]1OCC2(CCN(c3ncc(Sc4ccnc5c4CCC5)c4nccn34)CC2)[C@@H]1N [Example 97, (3S,4S)-8-(8-((6,7-dihydro-5H-cyclopenta[b]pyridin-4-yl)thio)imidazo[1,2-c]pyrimidin-5-yl)-3-methyl-2-oxa-8-azaspiro[4.5]decan-4-amine]
- EC50 (NCI-H358 cells): 110 nM
- IC50 [1]: 11 nM

Structure (SMILES): C[C@@H]1OCC2(CCN(c3ncc(Sc4cccn5nccc45)c4nccn34)CC2)[C@@H]1N [Example 98, (3S,4S)-3-methyl-8-(8-(pyrazolo[1,5-a]pyridin-4-ylthio)imidazo[1,2-c]pyrimidin-5-yl)-2-oxa-8-azaspiro[4.5]decan-4-amine]
- EC50 (NCI-H358 cells): 250 nM
- IC50 [1]: 16 nM

Structure (SMILES): C[C@@H]1OCC2(CCN(c3ncc(Sc4cccc5ccsc45)c4nccn34)CC2)[C@@H]1N [Example 99, (3S,4S)-8-(8-(benzo[b]thiophen-7-ylthio)imidazo[1,2-c]pyrimidin-5-yl)-3-methyl-2-oxa-8-azaspiro[4.5]decan-4-amine]
- EC50 (NCI-H358 cells): 96 nM
- IC50 [1]: 4.1 nM

Structure (SMILES): C[C@@H]1OCC2(CCN(c3ncc(Sc4cccc5nc(N)sc45)c4nccn34)CC2)[C@@H]1N [Example 100, (3S,4S)-8-(8-((2-aminobenzo[d]thiazol-7-yl)thio)imidazo[1,2-c]pyrimidin-5-yl)-3-methyl-2-oxa-8-azaspiro[4.5]decan-4-amine]
- EC50 (NCI-H358 cells): 140 nM
- IC50 [1]: 6.7 nM

Structure (SMILES): CSc1ccccc1Sc1cnc(N2CCC3(CC2)CO[C@@H](C)[C@H]3N)n2ccnc12 [Example 101, (3S,4S)-3-methyl-8-(8-((2-(methylthio)phenyl)thio)imidazo[1,2-c]pyrimidin-5-yl)-2-oxa-8-azaspiro[4.5]decan-4-amine]
- EC50 (NCI-H358 cells): 84 nM
- IC50 [1]: 5.7 nM

Structure (SMILES): C[C@@H]1OCC2(CCN(c3ncc(Sc4ccnc5sccc45)c4nccn34)CC2)[C@@H]1N [Example 102, (3S,4S)-3-methyl-8-(8-(thieno[2,3-b]pyridin-4-ylthio)imidazo[1,2-c]pyrimidin-5-yl)-2-oxa-8-azaspiro[4.5]decan-4-amine]
- EC50 (NCI-H358 cells): 66 nM
- IC50 [1]: 4 nM

Structure (SMILES): C[C@@H]1OCC2(CCN(c3ncc(Sc4ccnc5c(Br)cccc45)c4nccn34)CC2)[C@@H]1N [Example 103]
- EC50 (NCI-H358 cells): 150 nM
- IC50 [1]: 4.6 nM

Structure (SMILES): C[C@@H]1OCC2(CCN(c3ncc(Sc4ccnc5c(N)cccc45)c4nccn34)CC2)[C@@H]1N [Example 104, (3S,4S)-8-(8-((8-aminoquinolin-4-yl)thio)imidazo[1,2-c]pyrimidin-5-yl)-3-methyl-2-oxa-8-azaspiro[4.5]decan-4-amine]
- EC50 (NCI-H358 cells): 74 nM
- IC50 [1]: 4.2 nM

Structure (SMILES): COC(=O)c1cccc2c(Sc3cnc(N4CCC5(CC4)CO[C@@H](C)[C@H]5N)n4ccnc34)ccnc12 [Example 105, methyl 4-((5-((3S,4S)-4-amino-3-methyl-2-oxa-8-azaspiro[4.5]decan-8-yl)imidazo[1,2-c]pyrimidin-8-yl)thio)quinoline-8-carboxylate]
- EC50 (NCI-H358 cells): 760 nM
- IC50 [1]: 82 nM

Structure (SMILES): C[C@@H]1OCC2(CCN(c3ncc(Sc4ccnc5ccsc45)c4nccn34)CC2)[C@@H]1N [Example 106, (3S,4S)-3-methyl-8-(8-(thieno[3,2-b]pyridin-7-ylthio)imidazo[1,2-c]pyrimidin-5-yl)-2-oxa-8-azaspiro[4.5]decan-4-amine]
- EC50 (NCI-H358 cells): 39 nM
- IC50 [1]: 4.2 nM

Structure (SMILES): C[C@@H]1OCC2(CCN(c3ncc(Sc4cccc5cnsc45)c4nccn34)CC2)[C@@H]1N [Example 107, (3S,4S)-8-(8-(benzo[d]isothiazol-7-ylthio)imidazo[1,2-c]pyrimidin-5-yl)-3-methyl-2-oxa-8-azaspiro[4.5]decan-4-amine]
- EC50 (NCI-H358 cells): 64 nM
- IC50 [1]: 3.7 nM

Structure (SMILES): CSc1c(Cl)cccc1Sc1cnc(N2CCC3(CC2)CO[C@@H](C)[C@H]3N)n2ccnc12 [Example 108, (3S,4S)-8-(8-((3-chloro-2-(methylthio)phenyl)thio)imidazo[1,2-c]pyrimidin-5-yl)-3-methyl-2-oxa-8-azaspiro[4.5]decan-4-amine]
- EC50 (NCI-H358 cells): 87 nM
- IC50 [1]: 3.3 nM

Structure (SMILES): C[C@@H]1OCC2(CCN(c3ncc(Sc4ccnc5c(-n6cncn6)cccc45)c4nccn34)CC2)[C@@H]1N [Example 109, (3S,4S)-8-(8-((8-(1H-1,2,4-triazol-1-yl)quinolin-4-yl)thio)imidazo[1,2-c]pyrimidin-5-yl)-3-methyl-2-oxa-8-azaspiro[4.5]decan-4-amine]
- EC50 (NCI-H358 cells): 260 nM
- IC50 [1]: 18 nM

Structure (SMILES): C[C@@H]1OCC2(CCN(c3ncc(Sc4ccnc5c(C(=O)O)cccc45)c4nccn34)CC2)[C@@H]1N [Example 110, 4-((5-((3S,4S)-4-amino-3-methyl-2-oxa-8-azaspiro[4.5]decan-8-yl)imidazo[1,2-c]pyrimidin-8-yl)thio)quinoline-8-carboxylic acid]
- EC50 (NCI-H358 cells): 930 nM
- IC50 [1]: 190 nM
